According to patent US8574829B2, “Methods of treating cancer with phenformin” (The Trustees Of The University Of Pennsylvania, priority 2009, dated 2013):
“Also recorded” adds a separate entry of the source.

How the values were obtained:
[1] = system: K562 cells; test: K562 cell viability by propidium iodide exclusion over four days; assay type: cell-based; conditions: single dose, 1 mM phenformin, 750 nM imatinib, 25 nM rapamycin, FIG. 1B
Experimental: (§1) K562 cell line was obtained from ATCC.
K562 cells were treated with a single dose of imatinib, rapamycin, or phenformin, and assessed for cell number (Coulter Counter) and cell viability (by propidium iodide exclusion) over four days.

[2] = system: STAT5; test: Western blot of phospho-STAT5 (tyr694/699) in K562 cells 24 hours after inhibitor treatment; assay type: cell-based; conditions: relative to untreated, FIG. 2
Source text: (§2) Western Blot Analysis. Cells were lysed in radioimmunoprecipitation (RIPA) buffer containing protease inhibitors (Complete Mini, Roche Applied Science), and protease inihibitors cocktails I and II (Sigma). BCA Protein Assay kit (Pierce Biotechnology) was used to assess and standardize protein concentrations. Proteins were resolved using a 4-12% NuPage Bis-Tris polyacrylamide gels (Invitrogen), and transferred to nitrocellulose membranes. Membranes were blocked using 5% nonfat dry skim milk and 0.1% Tween. […] Bands were subsequently detected using horseradish-peroxidase conjugated anti-mouse or anti-rabbit secondary antibodies (GE Healthcare Industries) and enhanced chemiluminescence detection kit (Amersham).
(§3) To characterize the pattern of signaling pathway activation in inhibitor-treated cells, the activity of the Akt and Jak-STAT pathways were examined, two pathways known to be activated by the bcr-abl oncogenic signaling. Proteins were isolated from cells, 24 hours after inhibitor treatment, and assessed for levels of phospho-Akt ([…]) and phospho-STAT5 (tyr694/699), as well as total levels of these proteins as loading controls.

[3] = system: Akt; test: Western blot of phospho-Akt in K562 cells 24 hours after inhibitor treatment; assay type: cell-based; conditions: relative to untreated, FIG. 2
Source text: as §2, §3

[4] = system: K562 cells; test: Aerobic glycolysis: total glucose consumption and lactate production of K562 cultures over four days (Nova Bioprofile Flex Analyzer); assay type: cell-based; conditions: for glucose consumption: FIG. 5A; for lactate production: FIG. 5B
Experimental: (§4) Daily cell culture supernatants were collected, and analyzed using the Nova Biomedical Bioprofile Flex Analyzer, which determined glucose, glutamine, lactate, and ammonia levels. For the HIF-1 induction experiments, K562 cells were incubated at 4 million cells/ml in a plastic tube (Falcon 35-2059) with rubber stopper (Kontes Glass Company #882310), with constant stirring at 37 C. At indicated time points, tubes were spun to pellet cells, and the glucose, lactate and pO2 content of supernatant was assessed by syringe sampling through an air-tight rubber stopper. After supernatant sampling, cells were collected and lysates were prepared as described above.
To investigate the metabolic effects of phenformin on K562 cells, we compared the glycolytic activity of the cells in the drug-treated cultures by quantifying total glucose consumption and lactate production over four days (FIGS. 5A and 5B, respectively), by collecting and analyzing daily cell culture supernatants using a Nova Biomedical Bioprofile Flex Analyzer. […] Phenformin was therefore novel in its ability to dissociate aerobic glycolysis from cell proliferation.

[5] = system: K562 cells; test: K562 viability under medium depletion of glucose or glutamine (propidium iodide exclusion, FACS); assay type: cell-based; conditions: K562, 4 days; FIG. 7
Experimental: as §1
The viability of K562 cells after variable inhibitor treatment, and selective medium depletion of glucose or glutamine, is shown. Cell viability was determined by propidium iodide exclusion of 10,000 cells (via FACS analysis), taken from each culture each day of experiment.

[6] = system: K562 cells; test: Glutamine uptake of K562 cultures over four days; assay type: cell-based; conditions: FIG. 8
Experimental: as §4
To further investigate what functional role the TCA cycle might play in K562 proliferation, we compared the ability of phenformin-treated cells to metabolize glutamine. In tumor cells, glutaminolysis is important in maintaining TCA cycle activity, as it serves to provide an additional source of TCA cycle intermediates (a-ketoglutarate) to the mitochondria.

[7] = system: K562 cells; test: K562 proliferation, cell number by Coulter Counter over four days after a single dose of inhibitor; conditions: FIG. 1A; for effect on K562 proliferation (cell number): 25 nM rapamycin, four days
[8] = system: K562 cells; test: Comparison of phenformin and metformin: total K562 cell number after three days over a range of biguanide concentrations; assay type: cell-based; conditions: three days after a single dose, FIG. 3; for inhibition of K562 proliferation: started at 200,000 cells/ml
Source text: Direct comparison of metformin and phenformin activity, over a range of biguanide concentrations, was accomplished by comparing total K562 cell number after three days of exposure to a single dose of phenformin or metformin, as indicated (FIG. 3). Cell cultures were started at a density of 200,000 cells/ml.

[9] = treatment of diabetes; background statement; cited from earlier work
[10] = system: Bax-Bak deficient lymphocytes; test: Proliferation of Bax-Bak deficient lymphocytes with IL-3 stimulation, total cell number after three days; assay type: cell-based; conditions: three days after a single dose, started at 200,000 cells/ml, FIG. 4
Experimental: The ability of phenformin to inhibit the proliferation of Bax-Bak deficient lymphocytes, in the presence of IL-3 stimulation, was assessed, and compared to the activity of metformin. Direct comparison of metformin and phenformin activity, over a range of biguanide concentrations, was accomplished by comparing total cell numbers of bax-bak deficient cells after three days exposure to a single dose of phenformin or metformin, as indicated (FIG. 4). Cell cultures were started at a density of 200,000 cells/ml.

[11] = system: K562 cells; test: Oxygen consumption rate (electron transport activity), Clarke oxygen electrode; assay type: cell-based; conditions: 24 hours inhibitor treatment, relative to untreated, FIG. 6A
Experimental: (§5) Oxygen consumption by whole cells was measured as previously described. See Schumacker P T, Chandei N, Agusti A G. Oxygen conformance of cellular respiration in hepatocytes. Am J. Physiol. 1993; 265:L395-402. Briefly, inhibitor-treated (24 hours) K562 cells were resuspended at a concentration of 4 million cells/ml, and 1.4 mL of culture was transferred to a water-jacketed, airtight 3 ml chamber with a Clarke oxygen electrode, (Hansatech Instruments). Electron transport activity was manipulated through mitochondrial uncoupling with 10 uL of 1 mM Carbonyl cyanide 3-chlorophenylhydrazone (CCCP) (Sigma), and media supplementation of sodium Succinate (25 uL of 1M stock), after membrane permeabilization with […] (4 ul of 25 mg/ml stock). Relative ATP levels were assessed using the Invitrogen ATP determination kit (A22066), as per protocol, using 25,000 cell pellets. Cells were assayed after 24 hours of inhibitor treatment, as indicated, and results were expressed as Arbitrary Units/25000 cells.
Electron Transport Activity (ETC) activity, as determined by oxygen consumption rates, was assessed after treatment with each inhibitor, using a water-jacketed, airtight 3 ml chamber with a Clarke oxygen electrode, (Hansatech Instruments).

[12] = system: K562 cells; test: Intracellular ATP levels (Invitrogen ATP determination kit); assay type: cell-based; conditions: K562, 24 hours of inhibitor treatment; 25,000 cell pellets; FIG. 6B
Experimental: as §5
Cells were assayed after 24 hours of inhibitor treatment, as indicated, and results were expressed as Arbitrary Units/25000 cells. Oxygen consumption correlated closely with relative levels of intracellular ATP.

[13] = system: c-myc; test: Western blot of BCR-Abl-induced c-myc expression in K562 cells after 24 hours of inhibitor treatment; assay type: cell-based; conditions: K562, 24 hours of inhibitor treatment; FIG. 9
Source text: Western Blot Analysis. Cells were lysed in radioimmunoprecipitation (RIPA) buffer containing protease inhibitors (Complete Mini, Roche Applied Science), and protease inihibitors cocktails I and II (Sigma). BCA Protein Assay kit (Pierce Biotechnology) was used to assess and standardize protein concentrations. Proteins were resolved using a 4-12% NuPage Bis-Tris polyacrylamide gels (Invitrogen), and transferred to nitrocellulose membranes. Membranes were blocked using 5% nonfat dry skim milk and 0.1% Tween. Blots were subsequently probed with primary antibodies against: REDD-1 (Proteintech Group Inc), phospho-ser235/236 S6RP, total S6RP, phospho-thr172 AMPK, total-AMPK, phospho-tyr694/699 STAT5 (Upstate Biotechnology), total STAT5 (Upstate Biotechnology), phospho-thr202/tyr204 p42/44MAPK, total p42/44 MAPK, c-myc (Santa Cruz Biotechnologies), HIF-1a (Biosciences Pharmingen), and tubulin (Sigma). Unless otherwise indicated, all antibodies were obtained from Cell Signaling Technologies. Bands were subsequently detected using horseradish-peroxidase conjugated anti-mouse or anti-rabbit secondary antibodies (GE Healthcare Industries) and enhanced chemiluminescence detection kit (Amersham).
Expression levels of c-myc in inhibitor and untreated (U) control K562 cells was investigated by Western Blotting of cellular extracts prepared after 24 hours of inhibitor treatment.

[14] = system: K562 cells; test: pO2, glucose and lactate in supernatants of K562 cells incubated in airtight tubes at 37° C.; assay type: cell-based; conditions: 1 to 6 hours, versus untreated, FIG. 10A
Experimental: as §4
Phenformin-treated and untreated K562 cells were transferred to airtight tubes and incubated at 37° C. for 1 to 6 hours. At one hour intervals, supernatants were analyzed for partial oxygen pressure (pO2), glucose, and lactate levels, while cells were collected for protein extract preparation. […] FIG. 10D. Tubulin serves as loading control.

[15] = system: HIF-1; test: HIF-1 induction in K562 cells in airtight tubes (Western blot); assay type: cell-based; conditions: 37° C., FIG. 10D
Source text: as §2
Daily cell culture supernatants were collected, and analyzed using the Nova Biomedical Bioprofile Flex Analyzer, which determined glucose, glutamine, lactate, and ammonia levels. […] At indicated time points, tubes were spun to pellet cells, and the glucose, lactate and pO2 content of supernatant was assessed by syringe sampling through an air-tight rubber stopper. […]
Phenformin-treated and untreated K562 cells were transferred to airtight tubes and incubated at 37° C. for 1 to 6 hours. At one hour intervals, supernatants were analyzed for partial oxygen pressure (pO2), glucose, and lactate levels, while cells were collected for protein extract preparation. […]

[16] = 1 mM phenformin, 750 nM imatinib

SMILES	cell viability [1]	Akt phosphorylation [3]	glucose consumption [4]	lactate production [4]	cell viability in glutamine-depleted medium [5]	glutamine uptake [6]	effect on K562 proliferation (cell number) [7, 16]	inhibition of K562 proliferation [8]	risk / incidence of lactic acidosis [9]	also measured
Cc1ccc(NC(=O)c2ccc(CN3CCN(C)CC3)cc2)cc1Nc1nccc(-c2cccnc2)n1 [imatinib]	induced a decrease in viability	left Akt phosphoylation intact	minimal glucose consumption	minimal glucose consumption and lactate production	significantly increased cell death upon glutamine depletion	failed to demonstrate substantial glutamine uptake	halted K562 proliferation	–	–	STAT5 phosphorylation [2]: decreased the levels of STAT5 phosphorylation; doubling of cell number achieved before proliferation ceased ([7]; 750 nM imatinib): approximately one; time after which proliferation ceased ([7]; 750 nM imatinib): 2 days
CN(C)C(=N)NC(=N)N [metformin]	–	–	–	–	–	–	–	relatively weak inhibitor of K562 proliferation	significantly less than that observed with phenformin	–
[H]/N=C(/N)N/C(=N/[H])NCCc1ccccc1 [phenformin]	greater viability over the four days	no suppression of Akt phosphorylation	consumed glucose at rates similar to untreated cells	accumulated lactate and consumed glucose at rates similar to untreated cells	significantly increased cell death upon glutamine depletion	failed to demonstrate substantial glutamine uptake	halted K562 proliferation	more potent inhibitor of K562 proliferation	increased risk of lactic acidosis	potency in inhibiting K562 proliferation relative to metformin [8]: 100 fold; inhibition of proliferation of bax-bak deficient cells [10]: prevents proliferation of bax-bak deficient cells; also recorded: consistently more potent an inhibitor than metformin; oxygen consumption [11]: most dramatically reduced oxygen consumption; intracellular ATP levels [12]: most profoundly reduced; cell viability in glucose-depleted medium [5]: significantly increased cell death upon glucose depletion; c-myc expression [13]: inhibited c-myc expression more effectively than rapamycin; also recorded: commensurate in efficacy with imatinib; partial oxygen pressure (pO2) of the culture [14]: dramatically different partial oxygen pressures; also recorded: absence of hypoxia; also recorded: maintained an oxygen-rich environment; HIF-1 induction [15]: prevented HIF-1 induction; also recorded: prevents hypoxia and HIF-1 induction; time after which no increase in cell number was observed ([7]; 1 mM phenformin): 24 h
